According to patent publication US8173609B2, “Macrolides useful against inflammatory and allergic diseases” (Basilea Pharmaceutica AG, priority 2006, dated 2012):

Test system: human PDE4
Assay: PDE4 inhibition, in vitro enzymatic IMAP FP assay
Assay type: biochemical
Conditions: PDE4 partially purified from human monocytic U-937 cells; fluorescence polarization
Description: PDE4 specifically hydrolyzes cAMP and releases the product AMP. The potency of PDE inhibition by said agents was determined in an in vitro enzymatic assay. The assay is commercially available (IMAP™ FP assay Molecular Devices Corp.) and was optimized for the use of human PDE4. Fluorescently labeled cAMP was hydrolyzed by PDE4 and in a second step, binding of labeled product to a large binding partner allowed product detection by fluorescence polarization (FP) measurements.
PDE4 was partially purified from undifferentiated human monocytic cells (U-937) according to Thorpy et al. 1992 (J. Pharmacol. Exp. Ther. 263: 1195). […] In addition, PDE4 preparations were validated by inhibition studies with PDE4-specific and unspecific PDE inhibitors.
Stock solutions of test compounds were made in DMSO and diluted in assay buffer (10 mM Tris-HCl, 10 mM MgCl2, 0.1% BSA 0.05% NaN3, pH 7.2) to the desired concentrations. The solutions used in the assay contained test compound in assay buffer with 2% DMSO.
10 μl of substrate (at a concentration recommended by the manufacturer) were mixed with 5 μl of appropriately diluted PDE and 5 μl of test compound solution. 5 μl of reaction buffer with 2% DMSO were used for control reactions. […] After incubation for 90 minutes at room temperature, 60 μl of binding reagent were added as specified by the manufacturer. Binding was allowed to proceed for 30 minutes and fluorescence polarization was measured. Dose dependence of PDE inhibition was measured by assaying dilution series of test compounds in duplicates. IC50 values were determined from the measured activities by curve fitting.

Compound | IC50 [µM]
CC[C@H]1OC(=O)[C@H](C)[C@@H](O[C@H]2C[C@@](C)(OC)[C@@H](O)[C@H](C)O2)[C@H](C)[C@@H](O[C@@H]2O[C@H](C)C[C@H](N(C)C)[C@H]2O)[C@](C)(OC)C[C@@H](C)C(=O)[C@H](C)[C@H]2[C@H](SCCn3cnc4c(N)ncc(C(=O)Nc5c(Cl)cncc5Cl)c43)C(=O)O[C@@]21C [Example 11, compound of formula I where R1 is [2-[4-amino-7-(3,5-dichloro-pyridin-4-yl-amino-carbonyl)-imidazo[4,5-c]pyridin-1-yl]-ethyl]thio, R2 and R3 taken together form a C═O Group and R4 is Methyl] | 0.008
CCC1OC(=O)C(C)C(OC2CC(C)(OC)C(O)C(C)O2)C(C)C(OC2OC(C)CC(N(C)C)C2O)C(C)(OC)CC(C)C(=O)C(C)C2C(SCCCn3cnc4c(N)ncc(C(=O)NCC(=O)OC)c43)C(=O)OC12C (stereo not shown) [Example 9, compound of formula I where R1 is [3-[4-amino-7-([methoxycarbonylmethyl]-amino-carbonyl)-imidazo[4,5-c]pyridin-1-yl]-propyl]thio, R2 and R3 taken together form a C═O Group and R4 is Methyl] | 24.2
CCC1OC(=O)C(C)C(OC2CC(C)(OC)C(O)C(C)O2)C(C)C(OC2OC(C)CC(N(C)C)C2O)C(C)(OC)CC(C)C(=O)C(C)C2C(SCCCc3c(C(=O)Nc4ccncc4)ccc(OC)c3OC)C(=O)OC12C (stereo not shown) [Example 7, Compound of Formula I where R1 is [3-[2,3-dimethoxy-6-(pyridin-4-yl-amino-carbonyl)phenyl]-propyl]thio, R2 and R3 taken together form a C═O Group and R4 is Methyl] | 7.6
CCC1OC(=O)C(C)C(OC2CC(C)(OC)C(O)C(C)O2)C(C)C(OC2OC(C)CC(N(C)C)C2O)C(C)(OC)CC(C)C(=O)C(C)C2C(SCCN(Cc3cccnc3)c3ccc(OC)c(OC4CCCC4)c3)C(=O)OC12C (stereo not shown) [Example 5, Compound of Formula I where R1 is [2-[(3-cyclopentyloxy-4-methoxy-phenyl)-(pyridin-3-ylmethyl)-amino]-ethyl]thio, R2 and R3 taken together form a C═O Group and R4 is Methyl] | 0.85
compound of formula I where R1 is [2-[(5-(3,5-dichloro-pyridin-4-yl-amino-carbonyl)-1-ethyl-1H-pyrazolo[3,4-b]pyridin-4-ylamino]-ethyl]thio, R2 and R3 taken together form a C═O Group and R4 is Methyl [Example 6] | 0.37

Now from value to compound:

IC50 [µM] | Compound
2.6 | CC[C@H]1OC(=O)[C@H](C)[C@@H](O[C@H]2C[C@@](C)(OC)[C@@H](O)[C@H](C)O2)[C@H](C)[C@@H](O[C@@H]2O[C@H](C)C[C@H](N(C)C)[C@H]2O)[C@](C)(OC)C[C@@H](C)C(=O)[C@H](C)[C@H]2[C@H](SCCn3cnc4c(N)nc(NCc5ccncc5)nc43)C(=O)O[C@@]21C [Example 13, Compound of Formula I where R1 is [2-[6-amino-2-[[(4-pyridyl)methyl]amino]-purin-9-yl]ethyl]thio, R2 and R3 taken together form a C═O Group and R4 is Methyl]
13.4 | CCC1OC(=O)C(C)C(OC2CC(C)(OC)C(O)C(C)O2)C(C)C(OC2OC(C)CC(N(C)C)C2O)C(C)(OC)CC(C)C(=O)C(C)C2C(SCCn3c(CCc4cccnc4)nc4c(N)ncnc43)C(=O)OC12C (stereo not shown) [Example 1, compound of formula I where R1 is [2-[6-Amino-8-(2-pyridin-3-yl-ethyl)-purin-9-yl]ethyl]thio, R2 and R3 taken together form a C═O group and R4 is methyl]
3.6 | CSCCn1cnc2c(N)ncc(C(=O)Nc3c(Cl)cncc3Cl)c21 [reference compound]
0.28 | CCC1OC(=O)C(C)C(OC2CC(C)(OC)C(O)C(C)O2)C(C)C(OC2OC(C)CC(N(C)C)C2O)C(C)(OC)CC(C)C(=O)C(C)C2C(SCCN(Cc3ccncc3)c3ccc(OC)c(OC4CCCC4)c3)C(=O)OC12C (stereo not shown) [Example 4, compound of formula I where R1 is [2-[(3-cyclopentyloxy-4-methoxy-phenyl)-(pyridin-4-ylmethyl)-amino]-ethyl]thio, R2 and R3 taken together form a C═O Group and R4 is Methyl]
3.4 | CCC1OC(=O)C(C)C(OC2CC(C)(OC)C(O)C(C)O2)C(C)C(OC2OC(C)CC(N(C)C)C2O)C(C)(OC)CC(C)C(=O)C(C)C2C(SCCN(C(=O)c3ccncc3)c3ccc(OC)c(OC4CCCC4)c3)C(=O)OC12C (stereo not shown) [Example 3, Compound of Formula I where R1 is [2-[(3cyclopentyloxy-4-methoxy-phenyl)-(pyridin-4-yl-carbonyl)-amino]ethyl]thio, R2 and R3 taken together form a C═O Group and R4 is Methyl]
1 | CC[C@H]1OC(=O)[C@H](C)[C@@H](O[C@H]2C[C@@](C)(OC)[C@@H](O)[C@H](C)O2)[C@H](C)[C@@H](O[C@@H]2O[C@H](C)C[C@H](N(C)C)[C@H]2O)[C@](C)(OC)C[C@@H](C)C(=O)[C@H](C)[C@H]2[C@H](SCCn3cnc4c(N)ncc(C(=O)Nc5ccncc5)c43)C(=O)O[C@@]21C [Example 10, Compound of Formula I where R1 is [2-[4-amino-7-(pyridin-4-yl-amino-carbonyl)-imidazo[4,5-c]pyridin-1-yl]-ethyl]thio, R2 and R3 taken together form a C═O Group and R4 is Methyl]
4.7 | compound of formula I where R1 is [3-[4-Amino-7-(pyridin-4-yl-amino-carbonyl)-imidazo[4,5-c]pyridin-1-yl]-propyl]thio, R2 and R3 taken together form a C═O Group and R4 is Methyl [Example 8]
3.9 | CCC1OC(=O)C(C)C(OC2CC(C)(OC)C(O)C(C)O2)C(C)C(OC2OC(C)CC(N(C)C)C2O)C(C)(OC)CC(C)C(=O)C(C)C2C(SCCn3c(Nc4cccnc4)nc4c(N)ncnc43)C(=O)OC12C (stereo not shown) [Example 2, compound of formula I where R1 is [2-[6-Amino-8-(pyridin-3-ylamino)-purin-9-yl]ethyl]thio, R2 and R3 taken together form a C═O Group and R4 is Methyl]
3.8 | CC[C@H]1OC(=O)[C@H](C)[C@@H](O[C@H]2C[C@@](C)(OC)[C@@H](O)[C@H](C)O2)[C@H](C)[C@@H](O[C@@H]2O[C@H](C)C[C@H](N(C)C)[C@H]2O)[C@](C)(OC)C[C@@H](C)C(=O)[C@H](C)[C@H]2[C@H](SCCn3cnc4c(N)nc(NCc5cccnc5)nc43)C(=O)O[C@@]21C [Example 12, Compound of Formula I where R1 is [2-[6-amino-2-[[(3-pyridyl)methyl]amino]-purin-9-yl]ethyl]thio, R2 and R3 taken together form a C═O Group and R4 is Methyl]

Same assay, conditions: ratio of Example 11 IC50 to IC50 of free substituent drawing 48

IC50(PDE4) relative to the IC50(PDE4) for the macrolide substituent in free form | Compound
about one five hundredth | CC[C@H]1OC(=O)[C@H](C)[C@@H](O[C@H]2C[C@@](C)(OC)[C@@H](O)[C@H](C)O2)[C@H](C)[C@@H](O[C@@H]2O[C@H](C)C[C@H](N(C)C)[C@H]2O)[C@](C)(OC)C[C@@H](C)C(=O)[C@H](C)[C@H]2[C@H](SCCn3cnc4c(N)ncc(C(=O)Nc5c(Cl)cncc5Cl)c43)C(=O)O[C@@]21C [Example 11, compound of formula I where R1 is [2-[4-amino-7-(3,5-dichloro-pyridin-4-yl-amino-carbonyl)-imidazo[4,5-c]pyridin-1-yl]-ethyl]thio, R2 and R3 taken together form a C═O Group and R4 is Methyl]

Same assay, conditions: up to a concentration of 50 μM in the assay used in the examples

Compound | PDE4-inhibiting activity
CC[C@H]1OC(=O)[C@H](C)[C@@H](O[C@H]2C[C@@](C)(OC)[C@@H](O)[C@H](C)O2)[C@H](C)[C@@H](O[C@@H]2O[C@H](C)C[C@H](N(C)C)[C@H]2O)[C@](C)(OC)C[C@@H](C)C(=O)[C@H](C)[C@H]2[C@H](SC)C(=O)O[C@@]21C [reference compound] | does not show any PDE4-inhibiting activity
